According to PubChem BioAssay AID179 (DTP/NCI, 2004):
pEC50, pIC50: −log10 of the molar value. The source made the active and inactive calls.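 Rule for the calls: active = compounds giving half or more protection of infected cells from virus-caused growth loss, again on retest; inactive = the rest.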 Where a SMILES comes first, the peptide text is derived from it. [ ]: non-standard residue; d: D form. The star is where a group is joined. ξ: configuration not given here. X13 = COc1ccc(C(N*)c2ccc(OC)cc2)cc1; NMeF = CN[C@@H](Cc1ccccc1)C(=O)O; NMeD = CN[C@@H](CC(=O)O)C(=O)O; NMeV = CN[C@H](C(=O)O)C(C)C; ξNMeV = CNC(C(=O)O)C(C)C; Boc = CC(C)(C)OC(=O)*; ξNMeA = CNC(C)C(=O)O; ξV = CC(C)C(N)C(=O)O

System: CEM cells HIV-1 protection, formazan growth assay
Assay: NCI AIDS Antiviral Assay
Details: for pIC50: measured here: growth of uninfected CEM cells
Method in brief: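 Protection of CEM cells against HIV-1 measured as cell growth via soluble formazan read-out, with five concentrations tested on both infected and uninfected cells; failure to protect may reflect toxicity.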

O=C(NO)c1cccc(OCc2ccc(Br)cc2)c1
pEC50: < 3.70 | pIC50: 5.04

CCOC(=O)C/C=C\S[C@@H]1[C@H](NC(=O)COc2ccccc2)C(=O)N1C(C(=O)OCc1ccc([N+](=O)[O-])cc1)=C(C)C
pEC50: < 5.36 | pIC50: < 5.36

O=C1CN(N2CCOCC2)CC(=O)N2CCCCN12
pEC50: 4.72 | pIC50: < 3.70

Cc1cc(S(=O)(=O)NC2=NCCN2Cc2ccccc2)c(S)cc1Cl
pEC50: < 3.70 | pIC50: 4.23

CCN1C(=O)/C(=C2\SC(c3ccccc3)(c3ccccc3)c3ccccc32)SC1=S
pEC50: < 3.70 | pIC50: < 3.70

O=C(c1ccccc1)C1N(c2ccccc2)CCN1c1ccccc1
pEC50: < 3.70 | pIC50: 4.66

CCCS(=O)(=O)O
pEC50: < 3.70 | pIC50: < 3.70

Cc1nc2cc(Cl)cc(N)c2nc1C
pEC50: < 3.20 | pIC50: 3.53

C[Si](C)(C)c1ccc(CC2(Cc3ccc([Si](C)(C)C)cc3)CCNC2)cc1
pEC50: < 5.30 | pIC50: < 5.30

O=c1oc2ccccc2cc1-n1nnc2cc([N+](=O)[O-])ccc21
pEC50: < 5.05 | pIC50: < 5.05

O=C(OCCN1CCCC1)c1cc2ccccc2n1-c1ccccc1
pEC50: < 3.70 | pIC50: 4.33

C(=C\c1ccccc1)/C[P+](c1ccccc1)(c1ccccc1)c1ccccc1
pEC50: < 3.70 | pIC50: 6.28

O=C(Nc1c(NCC(O)C(O)C(O)CO)[nH]c(=O)[nH]c1=O)c1ccc(S(=O)(=O)F)cc1 (stereo unspecified)
pEC50: < 3.70 | pIC50: 3.93

CC(C)(C[NH-])C[NH-].[Cl][Pt+2][Cl]
pEC50: < 3.17 | pIC50: 5.69

N#Cc1nc(-c2cc([N+](=O)[O-])cc([N+](=O)[O-])c2)oc1N
pEC50: < 4.00 | pIC50: < 4.00

Cc1cn(C2CC(N=[N+]=[N-])C(COC(=O)CCCCCCCCCCCI)O2)c(=O)[nH]c1=O (stereo unspecified)
pEC50: 7.31 | pIC50: 3.99

O=C1c2ccccc2C(=O)N1CCCSCC(CO)SCCCN1C(=O)c2ccccc2C1=O (stereo unspecified)
pEC50: < 3.70 | pIC50: < 3.70

CCCC(CCC)C(=O)[O-].CCCC(CCC)C(=O)[O-].CCCC(CCC)C(=O)[O-].CCCC(CCC)C(=O)[O-].[Cu+2].[Cu+2]
pEC50: < 4.30 | pIC50: 5.13

CCCN(CCCCC(NC(C)=O)C(=O)NCc1ccccc1)C(=O)N(CCCl)N=O (stereo unspecified)
pEC50: < 4.10 | pIC50: < 4.10

CSc1nc(SC)c2ncn(C3CC(Oc4ccc(C)cc4)C(COc4ccc(C)cc4)O3)c2n1 (stereo unspecified)
pEC50: < 4.00 | pIC50: 4.18

O=C(O)C1=C(C(=O)O)N(c2ccncc2)C(c2ccco2)=CC1c1ccccc1[N+](=O)[O-] (stereo unspecified)
pEC50: < 3.70 | pIC50: 5.65

Cc1cc(C)c(-c2no/c(=N\S(=O)(=O)c3ccc(Cl)cc3)o2)c(C)c1
pEC50: < 3.70 | pIC50: < 3.70

Nc1ncnc2c1ncn2CC(O)CO (stereo unspecified)
outcome: inactive

CCOC(=O)/C(=C/c1cc(OC)ccc1OC)P(=O)(OCC)OCC
pEC50: < 3.17 | pIC50: 3.50

COc1ccc(C(=O)C(C(=O)C(=O)NCCCNC(=O)C(=O)C(C(=O)c2ccc(OC)cc2)c2ccc(OC)cc2)c2ccc(OC)cc2)cc1 (stereo unspecified)
outcome: inactive

Oc1cc2c(cc1C(c1cc3c(cc1O)OCO3)c1cc3c(cc1O)OCO3)OCO2
pEC50: < 3.93 | pIC50: 4.65

O=[N+]([O-])c1ccc(NC(c2ccccc2)P(=O)(Oc2ccccc2)Oc2ccccc2)cc1 (stereo unspecified)
pEC50: < 5.23 | pIC50: < 5.23

COc1cc2cccc(NC(=O)c3cc(OC)c(OC)c(OC)c3Br)c2cc1OC
outcome: inactive

COc1ccc(C(NC(=O)C[C@@H](C(=O)N(C)C(C)C(=O)O)N(C)C(=O)[C@@H]2CCCN2C(=O)[C@H](C(C)C)N(C)C(=O)C(C(C)C)N(C)C(=O)[C@H](Cc2ccccc2)N(C)C(=O)C(NC(=O)OC(C)(C)C)C(C)C)c2ccc(OC)cc2)cc1 (stereo partly specified) (Boc-[ξV][NMeF][ξNMeV][NMeV]P[NMeD](X13)[ξNMeA]-OH)
pEC50: < 3.80 | pIC50: 4.63

Cc1cccc2c(N)c3cccc(C(=O)NCCCNCCN)c3nc12
pEC50: < 6.70 | pIC50: 6.92

Brc1ccc(N2N=NC3C4CC(C5CCCC54)C32)cc1 (stereo unspecified)
pEC50: < 5.25 | pIC50: < 5.25

COc1cccc(CCNc2c(C#N)c3nc4ccccc4n3c3ccccc23)c1
pEC50: < 3.70 | pIC50: 6.53

O=C(/C(=C\c1ccc(Cl)cc1)c1ccccc1)c1ccccc1
pEC50: < 4.93 | pIC50: < 4.93

CCC(C)SC1SCC2C(=O)N(C)C3(CC3C)C(=O)OCC(NC(=O)c3nc4ccccc4cc3O)C(=O)NC(C)C(=O)N(C)C1C(=O)N(C)C1(CC1C)C(=O)OCC(NC(=O)c1nc3ccccc3cc1O)C(=O)NC(C)C(=O)N2C (stereo unspecified)
pEC50: < 7.70 | pIC50: 10.06

CCCCCC1=CC(=O)C=C(OC)C12C(=O)Oc1cc(O)c(C(=O)O)c(CCCCC)c12 (stereo unspecified)
pEC50: < 3.25 | pIC50: 4.11

O=C(O)CNS(=O)(=O)c1ccc(NCc2ccccc2)cc1
outcome: inactive

Cn1c(=O)c2c(c3c(c(=O)n(C)c(=O)n3C)n2Cc2ccccc2)n(C)c1=O
pEC50: < 4.03 | pIC50: < 4.03

CSc1c(C#N)c(N)n(-c2ccc(C)cc2)c(=O)c1C#N
pEC50: < 4.08 | pIC50: 4.13

CCCCCCCCCCCCCCCCNc1ccn(C2OC(COP(=O)(O)OC3CC(n4cc(C)c(=O)[nH]c4=O)OC3CO)C(O)C2O)c(=O)n1 (stereo unspecified)
pEC50: < 3.70 | pIC50: 4.72

CCOP(=O)(OCC)/C(C#N)=C/c1ccccn1
pEC50: 3.83 | pIC50: < 3.70

COc1ccc2c(=O)c(-c3ccc(OC)c(OC)c3OCc3ccccc3)coc2c1
pEC50: < 3.70 | pIC50: 4.16

Cc1cn(C2CC(O[Si](C)(C)C(C)(C)C)C(C/[N+]([O-])=N\Nc3ccc([N+](=O)[O-])cc3)O2)c(=O)[nH]c1=O (stereo unspecified)
pEC50: < 3.70 | pIC50: 5.48

Cc1ccc2cc(N)c3ccc(C)nc3c2n1.Cc1ccc2cc(N)c3ccc(C)nc3c2n1.O=C1OC(C(O)C[O-])C(O)=C1O.[Cu+]
pEC50: < 4.90 | pIC50: 6.26

O=C1OCc2cc3cc4c(cc3c(-c3ccc5c(c3)OCO5)c21)OCO4 (tested in a mixture with another compound)
outcome: inactive

O=C1C(=O)c2ccccc2C(O)=C1Sc1ccccc1
pEC50: < 3.70 | pIC50: 4.87

OC1NC2Nc3ccccc3NC2NC1O (stereo unspecified)
pEC50: < 3.70 | pIC50: < 3.70

O=C1/C(=N\O)c2ccccc2S1(=O)=O
outcome: inactive

CC1C2C=CC1C(c1c3ccc(=O)cc-3oc3cc(O)ccc13)C2C(=O)O (stereo unspecified)
pEC50: 5.62 | pIC50: 4.29

C=CCSCCOCn1cc(C)c(=O)[nH]c1=O
pEC50: < 3.70 | pIC50: < 3.70

CCOC(=O)/C(=N/Nc1ccc(C)cc1)N1C(=S)C=C(C)NN(C)C1=S
pEC50: < 3.70 | pIC50: < 3.70

COC(=O)C1=Nc2c(C)nn(-c3ccccc3)c2N=C(c2ccc([N+](=O)[O-])cc2)C1
pEC50: < 3.70 | pIC50: < 3.70

O=C1NC(=S)NC(=O)C1=Cc1ccc(Cl)c(Cl)c1
pEC50: < 4.06 | pIC50: < 4.06

CC(C)C1CC2C(=O)N(c3ccccc3)C(=O)C2c2[nH]c3ccccc3c21 (stereo unspecified)
outcome: inactive

O=C(Nc1nc2ccc([N+](=O)[O-])cc2s1)C(=O)C(C(=O)c1ccncc1)C1OC(=O)c2ccccc21 (stereo unspecified)
pEC50: < 3.73 | pIC50: 3.99

NCCCCC(N)C(=O)NCCNc1ccc(NCCNC(=O)C(N)CCCCN)c2c1C(=O)c1ccccc1C2=O (stereo unspecified)
pEC50: < 4.00 | pIC50: 5.47

Cc1csc2n(C)c(=O)c3ccccc3[n+]12
pEC50: 3.72 | pIC50: < 3.70

Cc1cc2c(cc1Cl)SC(C(=O)c1ccc(Cl)c(Cl)c1)=NS2(=O)=O
outcome: inactive
